Assay [1] deals with human fibroblasts. Briefly: DNA content of human fibroblasts (Desaulniers method). Type of assay: cell-based. Conditions: 0.001 % w/v; for DNA after 3 d: compared to blank sample = 100, after 3 d; for DNA after 6 d: compared to blank sample = 100, after 6 d. The text has this:
(§1) The enzyme glucose-6-phosphate dehydrogenase (G6PDH) catalyzes the first step of the so-called “pentose pathway”, in which an important DNA component, namely deoxyribose, is formed. Glucose 6-phosphate (G6P) is thereby converted into 6-phosphogluconate (6PG) by means of G6PDH. At the same time, the coenzyme NADP required thereby is reduced to NADPH2, which in turn is able to catalyze a large number of other biological reactions such as, for example, the recycling of glutathione or lipid synthesis. Reduced glutathione protects many enzymes which have SH groups and cells against oxidative stress, such as, for example, the action of UV. The G6PDH content is thus an important parameter for cell protection and skin renewal. G6PDH activity was determined in vitro on human fibroblasts by the enzymatic method of Okada, while the DNA content was determined by the Desaulniers method. The results of 3 series of measurements with triple determination are given in %-rel. compared to a blank sample.

Assay [2] concerns human fibroblasts and human keratinocytes. Briefly: Inhibition of apoptosis induced by growth factor deficiency (cell count, BrdU ELISA of cytoplasmic DNA fragments). The format is cell-based. Conditions: 0.001 % w/v, in comparison to the control = 100; for Content of DNA fragments: BrdU in cytoplasmic DNA fragments, based on a million cells. The text has this: Apoptosis, unlike necrosis, is the natural purposive cell death of specific undesired or damaged cells. It is an active process of the cells (suicide on command). In the case of skin ageing especially, a deficiency of growth factors in the skin leads to induced apoptosis of the skin cells. In the cells affected by apoptosis, the nuclear DNA is degraded by the specific enzyme endonuclease and the DNA fragments are passed into the cytoplasm.
The ability of carnosines to prevent apoptosis induced by a deficiency of growth factors in human skin cells was studied. These tests were carried out in vitro on human fibroblasts and human keratinocytes. The human cells were cultivated in a nutrient medium (DMEM=Dulbecco minimum essential medium from Life Technologie Sarl) with 10% fetal calf serum (from Dutcher). Bromodeoxyuridine (BrdU) was added to the nutrient medium; it was incorporated into the DNA and later served for detection of the DNA fragments in the cytoplasm. After an incubation period of two days, the nutrient medium was replaced by nutrient medium (DMEM) without fetal calf serum. The active substance to be tested was added. For comparison, a cell sample without active substance to be tested was incubated.
After a further incubation period of one or two days at 37° C., the cells were recovered by trypsinization according to the method of Dunnebacke and Zitcer described in: Cell and tissue culture, Ed.: J. Paul, Churchill Livingstone, 1975, p. 226. After the trypsinization, the cells were centrifuged and counted. Then the content of BrdU in the DNA fragments from the cytoplasm was determined by means of the ELISA test (ELISA kit from Roche). The content of BrdU is a measure of the DNA fragments which have passed from the nucleus, the cell core, into the cytoplasm. The results were based on a million cells and given in percent in comparison to the control.

The next assay addresses pancreas elastase (Sus scrofa, UniProt P00772). Briefly: Inhibition of elastase activity (chromogenic labelled elastin substrate, OD 410 nm). The format is biochemical. The settings on record: 0.3% by weight; 30 minutes at room temperature; relative to control = 0%. The method, then:
Elastase is a protease which is secreted by the fibroblasts under inflammatory conditions and is jointly responsible for the degradation of dermal macromolecules, such as, for example, collagen and elastin, and thus for skin ageing.
In order to determine the effectiveness of the plant extract in inhibiting the release of elastase, pancreas elastase (a serine protease) was studied and, as substrate, elastin was labeled with a chromogenic synthetic substrate. The system was incubated with the active ingredients for 30 minutes at room temperature and then, after centrifugation, the optical density of the dye at 410 nm was determined. The amount of extracts used was 0.3% by weight. The results were given relative to a control as standard (=0%); al-antitrypsin was used as the standard.

The test system of assay [3] is glucose-6-phosphate dehydrogenase (G6PDH). Briefly: G6PDH activity in vitro on human fibroblasts (enzymatic method of Okada). Conditions: 0.001 % w/v; for G6PDH after 3 d: compared to blank sample = 100, after 3 d; for G6PDH after 6 d: compared to blank sample = 100, after 6 d. The format is cell-based.
Excerpt: as §1

Assay [4] has as its system human fibroblasts. Briefly: Synthesis of dermal macromolecules (GAG) in collagen gel containing human fibroblasts. The format is cell-based. Conditions: 0.5% by weight FCS + 0.01% by weight substance; for Density, 14 days: relative density of collagen gel (0=clear or white, 1=black). The text has this:
The dermis is composed of cells (fibroblasts and mast cells), tissue components (collagen and elastin) and so-called ground substances. These ground substances include, for example, glycosaminoglycan (GAG), hyaluronic acid, chondroitin sulfate, dermatan sulfate and glycoproteins. As a result of skin ageing, the intermolecular strength and elasticity of the dermis, and thus the tautness of the skin, is reduced. Likewise, the number of skin cells present, in particular fibroblasts, is reduced as the skin ages. The collagen fibers are fragmented over time, and the proportion of insoluble to soluble collagen increases. The fine dermal elastic fibers become coarse and are destroyed. The synthesis of GAG (glycosaminoglycan) is reduced. All these processes contribute to skin ageing and the manifestations thereof, such as wrinkles and lack of tautness of the skin.
The measuring method is based on staining macromolecules in a culture of human fibroblasts which, with type I collagen, forms a collagen gel or collagen lattice fibers. Certain regions of those fibers are quantified by means of staining reagents for the proportion of the mentioned macromolecules.
For that purpose, a suspension of human fibroblasts was mixed with a solution of type I collagen (1-2 mg/ml). This mixture was incubated in a defined nutrient medium (DMEM=Dulbecco minimum essential medium, Life Technologie Sarl) comprising 0.5 or 2% by weight fetal calf serum (FCS) for 14 days at 37° C. in a 5% CO2 atmosphere in Petri dishes (5 ml per dish) with the addition of different concentrations of the plant extracts to be tested.
The kinetics of the collagen gel […] was determined 2 to 3 times per week by measuring two perpendicular diameters on each collagen gel using a microscope with an image analysis system. The size of the area is shown in cm^2 in Table 8. After incubation for 14 days, the density of the collagen gel was determined by image analysis with a light source of visible light, by comparatively analyzing different gray stages. This is a relative determination of the density (0=clear or white and 1=black), which cannot be given a unit.
After an incubation period of 7 and 14 days, biopsies (tissue samples) were taken and histological sections of the collagen gel containing human fibroblasts were obtained. The synthesis of macromolecules was analyzed and quantified by the staining of glycosaminoglycan with PAS Alcian blue, for example from SIGMA, by the periodic acid-Schiff method (PAS) described in: Mowry R W, Anal. NY Adad. Sci. 106 Art 2, 402, 1963. The stimulation of the synthesis of macromolecules was evaluated in the immediate vicinity of fibroblasts. This zone is also referred to as the “perifibroblast area”.
The “perifibroblast” secretion, or the secretion of fibroblasts into the periphery, was quantified by an image analyzer by means of a microscope. Reactive structures in the “perifibroblast area” were detected, and the different gray stages were comparatively determined. The values of the gray stages were thereby subdivided from 0=white to 255=black. These parameters are directly proportional to the intensity of the synthesis of macromolecules and thus to the GAG content of the fibroblasts.
The results of the values of these parameters are shown in Table 3 below and are to be regarded directly as representative values for the synthesis activity of the fibroblasts. The content of GAGs is described as a relative value of the gray stage.

Another assay has as its system type I collagen. Briefly: Inhibition of the non-enzymatic glycation of collagen (Schiff's bases, fluorescence 430 nm). The format is biochemical. Conditions: type I collagen with glucose, 21 days at 45° C.; control with glucose 100, control without glucose 46. The text has this: Glycation is a non-enzymatic reaction of glucose or other sugars with proteins to form glycoproteins. This reaction leads to unintentional changes in the collagen and elastin and thus to changes in the extracellular matrix. The function of the collagen and the extracellular matrix is disrupted. The prevention according to the invention of glycation leads to a reduction in the non-enzymatic change in collagen and elastin and thus to the prevention of a reduced function of the extracellular matrix.
The suspensions were then centrifuged and the content of Schiff's bases in the supernatant liquid was determined by fluorescence measurement at 430 nm. The results are again based on the control as standards (without extract and without glucose).

Chain of pancreas elastase (P00772 27-266): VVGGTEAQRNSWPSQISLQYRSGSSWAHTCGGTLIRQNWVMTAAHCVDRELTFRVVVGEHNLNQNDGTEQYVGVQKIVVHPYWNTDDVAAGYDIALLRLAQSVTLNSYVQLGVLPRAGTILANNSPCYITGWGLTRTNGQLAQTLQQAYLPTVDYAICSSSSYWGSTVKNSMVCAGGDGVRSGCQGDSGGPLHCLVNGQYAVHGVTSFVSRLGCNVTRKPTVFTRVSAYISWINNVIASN

Regarding `Cl.NCCC(=O)NCCc1cnc[nH]1` [Carnicine*HCl], in the assay on human fibroblasts [1], the “DNA after 3 d” value was found to be 106 %-rel and the “DNA after 6 d” value is recorded as 118 %-rel. Moreover, the “Content of DNA fragments” value in assay [2] stood at 88%. Moreover, the Cell count in assay [2] (medium without fetal calf serum) turned out to be 118%. The “Elastase inhibition, Inhibition [%]” value on pancreas elastase is 28%. Besides, in assay [3], the “G6PDH after 3 d” value amounted to 104 %-rel and the “G6PDH after 6 d” value is on record as 109 %-rel. Further, in the assay on human fibroblasts [4] (collagen gel area, 7 days), the “Area, 7 days” value is 9.9 cm2. Also, the “Area, 14 days” value in the assay on human fibroblasts [4] (collagen gel area, 14 days) turned out to be 5.8 cm2. For the same compound, the “Density, 14 days” value in the assay with human fibroblasts [4] (14 days) came to 0.25. Further, in the assay with human fibroblasts [4] (relative value of the gray stage (0=white to 255=black), perifibroblast area, 7 days), the “GAG content, 7 days” value is 11.8. Also, in the assay on human fibroblasts [4] (relative value of the gray stage (0=white to 255=black), perifibroblast area, 14 days), the “GAG content, 14 days” value is given as 13.3. The “Inhibition of the glycation of collagen, Inhibition [%]” value with type I collagen is 65%.
`NCCC(=O)N[C@@H](Cc1cnc[nH]1)C(=O)O` [L-Carnosine]: the “DNA after 6 d” value with human fibroblasts [1] is recorded as 120 %-rel. The “Content of DNA fragments” value in assay [2] came to 85%. For the same compound, in the assay on human fibroblasts [4] (14 days), the “Density, 14 days” value worked out at 0.25. For the same compound, the “Inhibition of the glycation of collagen, Inhibition [%]” value with type I collagen is 68%.
Regarding `CCCCC(CC)COC(=O)C(C#N)=C(c1ccccc1)c1ccccc1` (stereo not drawn) [Octocrinyl, reference compound], in the assay on human fibroblasts [1], the “DNA after 3 d” value amounted to 95 %-rel and the “DNA after 6 d” value is listed as 90 %-rel. Besides, in assay [3], the “G6PDH after 3 d” value was 89 %-rel and the “G6PDH after 6 d” value is given as 85 %-rel.

(Values after US10857085B2, “Preparations comprising carnosines” (Symrise AG, priority 2015, dated 2020).)
